PubChem BioAssay (NCI)
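Protocol summary: plate cells (96-well), add compound at 5 concentrations, incubate 48 h, interpolate endpoints linearly. GI50 is the concentration that inhibits growth by half. TGI marks complete inhibition of growth.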

Legend:
Experiment in all cases: inhibition of tumour cell growth, NCI panel, 48 h
[1] = test system: RXF 393 renal
[2] = test system: BT-549 breast
[3] = test system: MALME-3M melanoma
[4] = test system: A498 renal
[5] = test system: SN12C renal
[6] = test system: MOLT-4 leukemia
[7] = test system: RPMI-8226 leukemia
[8] = test system: SF-268 CNS
[9] = test system: 786-0 renal
[10] = test system: CCRF-CEM leukemia

Row | Compound | TGI [1] [µM] | TGI [2] [µM] | TGI [3] [µM] | TGI [4] [µM] | TGI [5] [µM] | TGI [6] [µM] | TGI [7] [µM] | TGI [8] [µM] | TGI [9] [µM] | GI50 [2] [µM] | GI50 [3] [µM] | GI50 [4] [µM] | GI50 [10] [µM] | TGI [10] [µM] | GI50 [5] [µM] | GI50 [6] [µM] | GI50 [7] [µM] | GI50 [8] [µM] | GI50 [9] [µM] | GI50 [1] [µM]
1 | Nc1[nH]c(=O)ncc1F | > 100 | > 100 | > 100 | > 100 | > 100 | > 100 | > 100 | > 100 | > 100 |  |  |  |  |  |  |  |  |  |  | 
2 | CCOC(=O)c1sc(-c2ccc(OS(=O)(=O)c3cccs3)c(C=O)c2)nc1C |  | 3.19 | 5.69 | 3.18 | 5.75 | 4.02 | 4.72 | 4.42 | 4.54 | 1.68 | 2.22 | 1.58 | 2.16 | 5.38 | 1.98 | 1.47 | 1.01 | 1.91 | 1.86 | 
3 | COc1ccc(SC2c3cc(OC)c(OC)cc3Oc3nc(N)c(C#N)c(N)c32)cc1 (stereo unspecified) | 2.01 | 2.19 | 2.89 | 2.85 |  | 1.6 | 1.81 | 3.07 | 1.73 | 1.02 | 1.46 | 1.42 |  |  |  | 0.315 | 0.354 | 1.55 | 0.493 | 0.74
4 | O=C1c2ccccc2C(=O)c2c1ccc(C(Br)Br)c2[N+](=O)[O-] | 2.72 | 8.3 | 3.71 | 7.73 | 3.86 | 3.43 |  | 3.17 | 3.45 | 2.51 | 1.94 | 1.67 | 0.582 | 2.53 | 1.83 | 1.23 |  | 1.57 | 1.85 | 1.26
5 | CC(=O)Oc1ccc(OC(C)=O)c2ccccc12 | 20.2 | 26.6 | 33 | 48.4 | 27.5 | 8.38 | 10.2 | 22.3 | 30.5 | 13.5 | 14 | 19.2 |  |  | 14 | 2.46 | 3.85 | 10.5 | 16.6 | 7.57
6 | O=C(c1ccccc1)C1C(C(=O)c2ccccc2)N1Cc1ccccc1 (stereo unspecified) |  | 72 | 77.3 | > 100 | 95.1 | > 100 | > 100 | > 100 | > 100 |  |  |  |  | > 100 |  |  |  |  |  | 
7 | Cn1c2ccccc2c(=Nc2ccccc2)c2c3ccccc3[nH]c21 | 4.05 | 7.13 | 1.8 | 3.08 | 3.11 | 11.7 | 2.56 | 2.37 | 2.63 | 3.15 | 0.345 | 1.34 |  |  | 1.24 | 0.32 | 1.08 | 0.436 | 1.33 | 1.84
8 | C(=N\Nc1nnc2c(n1)[nH]c1ccccc12)/c1cccnc1 | > 100 | > 100 | > 100 | > 100 | > 100 | > 100 | > 100 | > 100 | > 100 |  |  |  |  |  |  |  |  |  |  | 
9 | O=c1[nH]cc(CS(=O)(=O)Cc2c[nH]c(=O)[nH]c2=O)c(=O)[nH]1 | > 100 | > 100 | > 100 | > 100 | > 100 | > 100 | > 100 | > 100 | > 100 |  |  |  |  |  |  |  |  |  |  | 
10 | CCCCCCCCCCCCn1c(C)nc2ccccc21 |  | 28.7 | 33.6 | 25.5 | 31.1 | 23.5 | 10.3 | 41.1 | 24 | 12 | 16.2 | 12.4 | 2.79 | 21.2 | 14.4 | 10.2 | 0.614 | 19.6 | 11.5 | 
11 | S=c1nc(-c2nc(=S)[nH]c3c2CCCCCCCCCC3)c2c([nH]1)CCCCCCCCCC2 | > 100 | > 100 | > 100 | > 100 | > 100 | > 100 |  | > 100 | > 100 |  |  |  |  |  |  |  |  |  |  | 
12 | S=c1nc[nH]c2c1ncn2Cc1ccco1 | > 100 | > 100 | > 100 | > 100 | > 100 | > 100 | > 100 | > 100 | > 100 |  |  |  |  |  |  |  |  |  |  | 
13 | C=C(C=O)C1CC(=O)C(C(=O)OC)[C@@H]2O[C@@](C)(CC2=O)C[C@@H]2OC(=O)[C@]3(O[C@@H]23)[C@@H](C(=O)OC)C1 (stereo partly specified) | 33.6 | 55 |  | 47 | 50.4 | > 100 | 21.8 | 65.9 | 51 | 21.7 |  | 20.7 | 5.81 | > 100 | 18.7 | 4.2 | 4.16 | 21.5 | 19.3 | 9.3
14 | O=P(Oc1ccc(Cl)cc1)(Oc1ccc(Cl)cc1)N1CC1 |  | > 10 | > 10 | > 10 | > 10 | > 10 | > 10 | > 10 | > 10 |  |  |  |  | 0.429 |  |  |  |  |  | 
